Paper PMC4398456, “Evidence for a Novel Mechanism of Antimicrobial Action of a Cyclic R-,W-Rich Hexapeptide” (PLoS ONE, 2015)
Values after ≈ are worked out from the molar mass of the structure shown. Non-standard residues stand in square brackets, D forms with d. Residues, ends and D or L forms follow the SMILES beside them. *: point of attachment. NBD = O=[N+]([O-])c1ccc(*)c2nonc12; Dap = NC[C@H](N)C(=O)O

Experiments:
B. subtilis DSM 347 = conditions: microdilution; reported before; cited from earlier work
E. coli DH5α = conditions: microdilution; reported before; cited from earlier work
B. subtilis = test: Peptide localisation by fluorescence microscopy (CLSM); format: cell-based; conditions: 12 μM peptide, 30 minutes, LB-agarose pad; at least three independent experiments
E. coli = test: as above; format: cell-based; conditions: 12 μM peptide, 30 minutes, LB-agarose pad; at least three independent experiments
Procedure: Cells from an overnight culture were diluted 1:100 in fresh medium and grown to mid-log phase. LB-agarose pads were prepared by adding 1.5% agarose to LB medium and heated until the agarose was completely dissolved. In the case of translocation experiments the solution was slightly cooled down before peptides were added at a final concentration of 12 μM. 100 μl LB-agarose was applied to a cover slip and stored at 8°C in the dark for ~30 minutes. The hardened LB-pad was placed on top of 10 μl of bacterial culture (OD600 0.4) and live cell imaging was performed for up to 100 minutes in a heat controlled chamber to avoid desiccation.
Specific staining of CL with NAO has been shown before and is neither influenced by fixation nor depolarisation of the membrane. The emission shift from green to red fluorescence (513 nm to 640 nm) was reported to be exclusive for binding to CL and is caused by narrow stacking of dye molecules. Images were captured using a Zeiss Axiovert M200 inverted fluorescence microscope and an LSM 510 ConfoCor2 (Germany) with plan-apochromat 63, 100×/1.4 objective, respectively, and processed with ImageJ.

E. coli L-WF+ = test: HPLC uptake study with o-nitroaniline modification; format: cell-based; conditions: 10^9 cells/ml DPBSG, 24 μM peptide, 30 min, 37°C; o-nitroaniline treatment; fluorescence HPLC; three independent experiments in triplicates
From the text: (§1) As the cytoplasmic membrane of bacteria has been identified as the target of cWFW, cell wall-deficient L-form strains derived from E. coli (LWF+) and B. subtilis (L-170) were used to quantify peptide uptake into the cytoplasm. The approach, originally developed for the investigation of peptide uptake into eukaryotic cells, is based on chemical modification of the amino group of lysine side chains with o-nitroaniline and fluorescence-based HPLC detection of non-modified and modified sequences. Fluorescence labelling was necessary for quantification of cyclic hexapeptide uptake.
(§2) Cells were cultivated to an OD550 ± 0.8 in conical flasks as described above. After harvesting and centrifugation at 2000 × g (Sigma 3K12, Germany) for 12 min and removal of culture medium, cells were washed twice with DPBSG (DPBS containing 1g/l glucose). […] Protein content was determined with BCA Protein Assay Kit (Thermo Scientific, Germany) according to manufacturer’s instructions. […]
(§3) HPLC analysis was performed as described before using a Jasco LC-2000 Plus (U.S.) with a ProntoSil 300-5-C18-H column (250 × 4.6 mm, 5 μm) (Bischoff Chromatography, Germany) and a precolumn with PolyenCap A300, 10 μm. Peptide amounts were quantified via calibration curves for carboxyfluorescein (ex 445 nm, em 520 nm, gain 1000) and NBD fluorescence (ex 470 nm, em 520 nm, gain 1000), respectively.

B. subtilis L-170 = test: HPLC uptake study with o-nitroaniline modification; format: cell-based; conditions: 10^9 cells/ml DPBSG, 24 μM peptide, 30 min, 37°C; o-nitroaniline treatment; fluorescence HPLC; three independent experiments in triplicates
From the text: as §1, §2, §3

| SMILES | MIC B. subtilis DSM 347 (B. subtilis DSM 347) [µM] | MIC E. coli DH5α (E. coli DH5α) [µM] | peptide localisation in live cells (B. subtilis) | peptide localisation in live cells (E. coli) | fraction of unmodified peptide, inaccessible for chemical modification, of the total cell-bound peptides (E. coli L-WF+) | fraction of unmodified peptide, inaccessible for chemical modification, of the total cell-bound peptides (B. subtilis L-170) [%] |
| --- | --- | --- | --- | --- | --- | --- |
| N=C(N)NCCC[C@@H]1NC(=O)[C@H](CCCNC(=N)N)NC(=O)[C@H](Cc2c[nH]c3ccccc23)NC(=O)[C@H](CNc2ccc([N+](=O)[O-])c3nonc23)NC(=O)[C@H](Cc2c[nH]c3ccccc23)NC(=O)[C@H](CCCNC(=N)N)NC1=O [cW[NBD]W] (cyclo(RRRW[Dap](NBD)W)) | 25 (≈ 27.3 µg/mL) | 50 (≈ 54.5 µg/mL) | not detectable within the cytoplasm | not detectable within the cytoplasm | – | – |
| N=C(N)NCCC[C@@H]1NC(=O)[C@H](CCCCN)NC(=O)[C@H](Cc2c[nH]c3ccccc23)NC(=O)[C@H](CNc2ccc([N+](=O)[O-])c3nonc23)NC(=O)[C@H](Cc2c[nH]c3ccccc23)NC(=O)[C@H](CCCCN)NC1=O [cR2[NBD]] (cyclo(KRKW[Dap](NBD)W)) | 12 (≈ 12.4 µg/mL) | 50 (≈ 51.7 µg/mL) | – | – | about 20% | ~30 |
